The source of these data is patent publication US20260125400A1, “TYK2 DEGRADERS AND USES THEREOF” (Kymera Therapeutics, Inc., priority 2023, published 2026).

Each structure is given as a SMILES string. Where two headings read alike, the source gives them in different places.

This test has as its target T1, TYK2 (Homo sapiens, UniProt P29597).
T1 construct: Degradation of TYK2 in cells was quantitatively measured using Meso Scale Discovery (MSD) technology; endogenous in cells; host or cells: OCI-LY10
The test can be described thus: TYK2 MSD degradation in OCI-LY10 cells. The note with it: 4 to 24 hours incubation; for DC50: read-out: TYK2 MSD OCI-LY10 Rel-DC50. Type of test: cell-based. The procedure, abridged: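 Cellular TYK2 levels were measured by Meso Scale Discovery sandwich detection in RIPA lysates of OCI-LY10 cells exposed 4 to 24 hours at 37° C to nine 1:3 compound doses starting at 1 to 10 μM final; dose-response fitted by four-parameter regression.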

Setting [1] is: TYK2 degradation in OCI-LY10 cells.

T1 sequence (P29597 whole entry): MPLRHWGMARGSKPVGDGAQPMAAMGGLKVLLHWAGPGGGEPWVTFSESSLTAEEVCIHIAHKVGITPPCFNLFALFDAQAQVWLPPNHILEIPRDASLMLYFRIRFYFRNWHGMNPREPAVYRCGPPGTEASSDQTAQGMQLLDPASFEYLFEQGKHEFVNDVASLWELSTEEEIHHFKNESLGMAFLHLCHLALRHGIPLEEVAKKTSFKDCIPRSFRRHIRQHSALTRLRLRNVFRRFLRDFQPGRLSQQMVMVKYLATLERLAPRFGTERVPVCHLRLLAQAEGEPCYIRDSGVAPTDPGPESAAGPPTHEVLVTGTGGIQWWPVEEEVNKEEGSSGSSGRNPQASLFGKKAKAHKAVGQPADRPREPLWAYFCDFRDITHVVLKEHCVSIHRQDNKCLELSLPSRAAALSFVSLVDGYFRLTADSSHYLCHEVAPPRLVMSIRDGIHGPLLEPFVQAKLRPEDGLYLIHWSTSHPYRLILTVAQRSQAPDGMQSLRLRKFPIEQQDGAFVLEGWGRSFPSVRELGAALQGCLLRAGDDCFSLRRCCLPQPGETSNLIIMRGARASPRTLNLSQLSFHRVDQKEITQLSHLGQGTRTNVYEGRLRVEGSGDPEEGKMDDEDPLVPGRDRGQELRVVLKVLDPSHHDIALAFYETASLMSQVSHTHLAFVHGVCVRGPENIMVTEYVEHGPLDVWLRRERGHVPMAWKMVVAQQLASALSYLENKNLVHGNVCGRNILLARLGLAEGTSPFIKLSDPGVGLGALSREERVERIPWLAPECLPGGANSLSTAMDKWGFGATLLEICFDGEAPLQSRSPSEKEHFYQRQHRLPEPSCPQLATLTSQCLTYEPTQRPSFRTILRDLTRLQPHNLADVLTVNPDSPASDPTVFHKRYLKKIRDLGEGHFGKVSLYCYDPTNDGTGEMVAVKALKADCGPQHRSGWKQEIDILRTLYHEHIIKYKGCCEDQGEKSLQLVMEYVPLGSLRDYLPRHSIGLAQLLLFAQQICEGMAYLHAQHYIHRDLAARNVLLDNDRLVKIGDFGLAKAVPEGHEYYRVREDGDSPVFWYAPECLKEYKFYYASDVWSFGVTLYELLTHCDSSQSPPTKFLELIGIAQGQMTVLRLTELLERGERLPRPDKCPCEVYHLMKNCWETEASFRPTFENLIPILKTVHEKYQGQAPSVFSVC

For the molecule `CNc1cc(N2CCc3c(-c4ccc(CN5CC6(CCN(C(=O)c7cc(N8CCC(=O)NC8=O)c(C)cn7)CC6)C5)cn4)cccc32)nn2c(C(=O)N[C@@H]3C[C@@H]3F)cnc12` [I-782], under “OCI-LY10 cells”, the “TYK2 MSD OCI-LY10 Dmax %” value is reported as “A (A (>90%))” and the DC50 – broadly, the concentration at which degradation of the target reaches its halfway point – is below 1 nM.
As to `CNc1cc(N2CCc3c(N4CC(CN5CCC6(CCN(C(=O)c7ccc(Cl)c(N8CCC(=O)NC8=O)c7)CC6)C(F)(F)C5)C4)cccc32)nn2c(C(=O)N[C@@H]3C[C@@H]3F)cnc12` [I-783], for the setting “OCI-LY10 cells”, the “TYK2 MSD OCI-LY10 Dmax %” value is “B (B (90 to >75%))” and the DC50 is below 10 nM.
With `CNc1cc(N2CCc3c(-c4ccc(CN5CCC(N6CCC(N(C)c7ccc(Cl)c(N8CCC(=O)NC8=O)c7)CC6)C(F)(F)C5)cn4)cccc32)nn2c(C(=O)N[C@@H]3C[C@@H]3F)cnc12` (some centres unmarked) [I-784], where the note is “OCI-LY10 cells”, the “TYK2 MSD OCI-LY10 Dmax %” value was “C (C (75 to 50%))” and the DC50 fell in the range of 10 to 100 nM.
Consider `CNc1cc(N2CCc3c(N4CC(CN5CCC(N6CCC7(CCN(C(=O)c8ccc(Cl)c(N9CCC(=O)NC9=O)c8)CC7)CC6)C(F)(F)C5)C4)cccc32)nn2c(C(=O)N[C@@H]3C[C@@H]3F)cnc12` (some centres unmarked) [I-785], for which, where the note is “OCI-LY10 cells”, the “TYK2 MSD OCI-LY10 Dmax %” value is “B (B (90 to >75%))” and the DC50 was below 10 nM.
As to `CNc1cc(N2CCc3c(N4CC(CN5CCN(C6CCN(C(=O)c7ccc(Cl)c(N8CCC(=O)NC8=O)c7)CC6)CC5)C4)cccc32)nn2c(C(=O)N[C@@H]3C[C@@H]3F)cnc12` [I-787], for the setting “OCI-LY10 cells”, the “TYK2 MSD OCI-LY10 Dmax %” value is “D (D (<50%))” and the DC50 is above 100 nM.
For `CNc1cc(-c2cn(C3CCN(CC4CCN(C(=O)c5ccc(Cl)c(N6CCC(=O)NC6=O)c5)CC4)CC3)c3ccccc23)nn2c(C(=O)N[C@@H]3C[C@@H]3F)cnc12` [I-789], for the setting “OCI-LY10 cells”, the “TYK2 MSD OCI-LY10 Dmax %” value is reported as “D (D (<50%))” and the half-maximal degradation concentration (DC50) was above 100 nM.
Taken in the same sequence, the figures for `CNc1cc(N2CCc3c(CN4CCC(N5CC(C6CCN(C(=O)c7ccc(Cl)c(N8CCC(=O)NC8=O)c7)CC6)C5)C(F)(F)C4)cccc32)nn2c(C(=O)N[C@@H]3C[C@@H]3F)cnc12` (some centres unmarked) [I-791] were “A (A (>90%))” and below 1 nM.
With `CNc1cc(N2CCc3c(-c4ccc(CN5CCC6(CCN(C(=O)c7cc(Cl)c(F)c(N8CCC(=O)NC8=O)c7)CC6)C(F)(F)C5)cn4)cccc32)nn2c(C(=O)N[C@@H]3C[C@@H]3F)cnc12` [I-792], where the note is “OCI-LY10 cells”, the “TYK2 MSD OCI-LY10 Dmax %” value is reported as “B (B (90 to >75%))” and the DC50 was below 10 nM.
In the case of `CNc1cc(N2CCc3c(C#CCN4CCC(N5CC6(CN(C(=O)c7ccc(Cl)c(N8CCC(=O)NC8=O)c7)C6)C5)C(F)(F)C4)cccc32)nn2c(C(=O)N[C@@H]3C[C@@H]3F)cnc12` (some centres unmarked) [I-795], under setting [1], the “TYK2 MSD OCI-LY10 Dmax %” value is “A (A (>90%))” and the DC50 is below 1 nM.
On to `CNc1cc(N2CCc3c(-c4ccc(CN5CC6(CCN(C(=O)c7cc(C)c(C)c(N8CCC(=O)NC8=O)c7)CC6(F)F)C5)cn4)cccc32)nn2c(C(=O)N[C@@H]3C[C@@H]3F)cnc12` [I-796], for which, under setting [1], the “TYK2 MSD OCI-LY10 Dmax %” value is “A (A (>90%))” and the DC50 is below 1 nM.
Turning to `CNc1cc(N2CCc3c(-c4ccc(CN5CCC6(CCN(C(=O)c7cc(C)c(C)c(N8CCC(=O)NC8=O)c7)CC6)C(F)(F)C5)cn4)cccc32)nn2c(C(=O)N[C@@H]3C[C@@H]3F)cnc12` [I-797], under setting [1], the “TYK2 MSD OCI-LY10 Dmax %” value is recorded as “A (A (>90%))” and the 50% degradation concentration (DC50) was below 1 nM.
`CNc1cc(-c2cn(C3CCN(C(=O)c4ccc(Cl)c(N5CCC(=O)NC5=O)c4)CC3)c3ccccc23)nn2c(C(=O)N[C@@H]3C[C@@H]3F)cnc12` [I-798]: under setting [1], the “TYK2 MSD OCI-LY10 Dmax %” value is recorded as “D (D (<50%))” and the DC50 is above 100 nM.
The matching figures for `CNc1cc(N2CCc3c(-c4ncc(CN5CCC6(CCN(C(=O)c7cc(C)c(Cl)c(N8CCC(=O)NC8=O)c7)CC6)C(F)(F)C5)cn4)cccc32)nn2c(C(=O)N[C@@H]3C[C@@H]3F)cnc12` [I-799]: “B (B (90 to >75%))” and below 10 nM.
Taken in the same sequence, the figures for `CNc1cc(N2CCc3c(CC4CCC5(CC4)CCN(C4CCN(C(=O)c6ccc(Cl)c(N7CCC(=O)NC7=O)c6)CC4(F)F)CC5)cccc32)nn2c(C(=O)N[C@@H]3C[C@@H]3F)cnc12` (some centres unmarked) [I-800] were “D (D (<50%))” and above 100 nM.
Taken in the same sequence, the figures for `CNc1cc(N2CCc3c(CN4CCC(N5CCC6(CCN(C(=O)c7ccc(Cl)c(N8CCC(=O)NC8=O)c7)CC6)CC5)CC4)cccc32)nn2c(C(=O)N[C@@H]3C[C@@H]3F)cnc12` [I-802] were “B (B (90 to >75%))” and below 10 nM.
For the molecule `CNc1cc(N2CCc3c(CN4CCC(N5CCC(N6CCN(C(=O)c7ccc(Cl)c(N8CCC(=O)NC8=O)c7)CC6)C5)C(F)(F)C4)cccc32)nn2c(C(=O)N[C@@H]3C[C@@H]3F)cnc12` (some centres unmarked) [I-803], under setting [1], the “TYK2 MSD OCI-LY10 Dmax %” value is reported as “A (A (>90%))” and the DC50 was below 1 nM.
Regarding `CNc1cc(N2CCc3c(CN4CCC(N5CCC6(CCN(C(=O)c7ccc(Cl)c(N8CCC(=O)NC8=O)c7)CC6)C5)C(F)(F)C4)cccc32)nn2c(C(=O)N[C@@H]3C[C@@H]3F)cnc12` (some centres unmarked) [I-805], under setting [1], the “TYK2 MSD OCI-LY10 Dmax %” value was “A (A (>90%))” and the 50% degradation concentration (DC50) is below 1 nM.
`CNc1cc(N2CCc3c2cccc3C23CC(CN4CCC(N5CCC6(CCN(C(=O)c7ccc(Cl)c(N8CCC(=O)NC8=O)c7)CC6)CC5)C(F)(F)C4)(C2)C3)nn2c(C(=O)N[C@@H]3C[C@@H]3F)cnc12` (some centres unmarked) [I-807]: under setting [1], the “TYK2 MSD OCI-LY10 Dmax %” value is “B (B (90 to >75%))” and the DC50 was below 10 nM.
As for `CNc1cc(N2CCc3c(CN4CCC(N5CCC6(CCN(C(=O)c7ccc(Cl)c(N8CCC(=O)NC8=O)c7)CC6)CC5)C(F)(F)C4)cc(F)cc32)nn2c(C(=O)N[C@@H]3C[C@@H]3F)cnc12` (some centres unmarked) [I-808], under setting [1], the “TYK2 MSD OCI-LY10 Dmax %” value is reported as “A (A (>90%))” and the DC50 is below 1 nM.
Take `CNc1cc(N2CCc3c(CN4CCC(N5CCC6(CCN(C(=O)c7ccc(Cl)c(N8CCC(=O)NC8=O)c7)C6)C5)C(F)(F)C4)cccc32)nn2c(C(=O)N[C@@H]3C[C@@H]3F)cnc12` (some centres unmarked) [I-811]: under setting [1], the “TYK2 MSD OCI-LY10 Dmax %” value is “A (A (>90%))” and the DC50 was below 1 nM.
For the molecule `CNc1cc(N2CCc3c(-c4ncc(CN5CC6(CCN(C(=O)c7cc(C)c(Cl)c(N8CCC(=O)NC8=O)c7)CC6(F)F)C5)cc4F)cccc32)nn2c(C(=O)N[C@@H]3C[C@@H]3F)cnc12` [I-813, 6-(4-(5-((7-(4-chloro-3-(2,4-dioxotetrahydropyrimidin-1(2H)-yl)-5-methylbenzoyl)-5,5-difluoro-2,7-diazaspiro[3.5]nonan-2-yl)methyl)-3-fluoropyridin-2-yl)indolin-1-yl)-N-((1R,2S)-2-fluorocyclopropyl)-8-(methylamino)imidazo[1,2-b]pyridazine-3-carboxamide], under setting [1], the Dmax (in general, the largest share of the target that was removed) was above 90% and the DC50 is below 1 nM.
For the molecule `CNc1cc(N2CCc3c(-c4ccc(CN5CCC6(CCN(C(=O)c7cc(C)c(Cl)c(N8CCC(=O)NC8=O)c7)CC6)C(F)(F)C5)cn4)cc(F)cc32)nn2c(C(=O)N[C@@H]3C[C@@H]3F)cnc12` [I-815], under setting [1], the “TYK2 MSD OCI-LY10 Dmax %” value is “B (B (90 to >75%))” and the DC50 was below 10 nM.
With `CNc1cc(N2CCc3c(-c4ccc(CN5CCC6(CCN(C(=O)c7cc(C)c(Cl)c(N8CCC(=O)NC8=O)c7)CC6)C(F)(F)C5)cn4)cccc32)nc2c(C(=O)N[C@@H]3C[C@@H]3F)cnn12` [I-816], under setting [1], the “TYK2 MSD OCI-LY10 Dmax %” value is on record as “B (B (90 to >75%))” and the DC50 was below 10 nM.
Taken in the same sequence, the figures for `CNc1cc(N2CCc3c(-c4ncc(CN5CCC6(CCN(C(=O)c7cc(C)c(Cl)c(N8CCC(=O)NC8=O)c7)CC6)C(F)(F)C5)cc4F)cccc32)nn2c(C(=O)N[C@@H]3C[C@@H]3F)cnc12` [I-818] were “B (B (90 to >75%))” and below 10 nM.
Regarding `CNc1cc(N2CCc3c(CC4CCN(C5CCC6(CC5)CCN(C(=O)c5ccc(Cl)c(N7CCC(=O)NC7=O)c5)CC6)CC4)cccc32)nn2c(C(=O)N[C@@H]3C[C@@H]3F)cnc12` [I-820], under setting [1], the “TYK2 MSD OCI-LY10 Dmax %” value is recorded as “B (B (90 to >75%))” and the DC50 is below 10 nM.
The matching figures for `CNc1cc(N2CCc3c2cccc3C23CC(CN4CCN(C5CCN(C(=O)c6ccc(Cl)c(N7CCC(=O)NC7=O)c6)CC5)CC4)(C2)C3)nn2c(C(=O)N[C@@H]3C[C@@H]3F)cnc12` [I-823]: “A (A (>90%))” and below 1 nM.
Take `CNc1cc(N2CCc3c(-c4ccc(CN5CCC6(CCN(C(=O)c7ccc(Cl)c(N8CCC(=O)NC8=O)c7)CC6)C(F)(F)C5)cn4)cccc32)nn2c(C(=O)NC3CCC3)cnc12` [I-824]: under setting [1], the “TYK2 MSD OCI-LY10 Dmax %” value is on record as “B (B (90 to >75%))” and the DC50 is below 10 nM.
As to `CNc1cc(N2CCc3c2cccc3C23CC(CN4CCN(C5CCN(C(=O)c6ccc(Cl)c(N7CCC(=O)NC7=O)c6)CC5(F)F)CC4)(C2)C3)nn2c(C(=O)N[C@@H]3C[C@@H]3F)cnc12` (some centres unmarked) [I-832], under setting [1], the “TYK2 MSD OCI-LY10 Dmax %” value is reported as “A (A (>90%))” and the DC50 is below 1 nM.
Turning to `CNc1cc(N2CCc3c(CN4CCC5(CC4)CCN(C4CCN(C(=O)c6ccc(Cl)c(N7CCC(=O)NC7=O)c6)CC4)CC5(F)F)cccc32)nn2c(C(=O)N[C@@H]3C[C@@H]3F)cnc12` [I-833], under setting [1], the “TYK2 MSD OCI-LY10 Dmax %” value was “B (B (90 to >75%))” and the DC50 is below 10 nM.
The matching figures for `CNc1cc(N2CCc3c(-c4ccc(CN5CCC6(CCN(C(=O)c7cc(Cl)cc(N8CCC(=O)NC8=O)c7)CC6)C(F)(F)C5)cn4)cccc32)nn2c(C(=O)N[C@@H]3C[C@@H]3F)cnc12` [I-835]: “B (B (90 to >75%))” and below 10 nM.
As for `CNc1cc(N2CCc3c(CN4CCC5(CCN(C6CCN(C(=O)c7ccc(Cl)c(N8CCC(=O)NC8=O)c7)CC6)CC5)C(F)(F)C4)cccc32)nn2c(C(=O)N[C@@H]3C[C@@H]3F)cnc12` [I-836], under setting [1], the “TYK2 MSD OCI-LY10 Dmax %” value is recorded as “B (B (90 to >75%))” and the DC50 was below 10 nM.
